In US20150141439A1, “PHARMACEUTICAL COMPOSITION FOR THE PREVENTION OR TREATMENT OF BRAIN TUMOR OR TEMODAL RESISTANT GLIOBLASTOMA MULTIFORM COMPRISING AZATHIOPRINE AS AN ACTIVE INGREDIENT” (KOREA RESEARCH INSTITUTE OF CHEMICAL TECHNOLOGY, priority 2012, published 2015):

Legend:
[1] = tested on: cells of lung cancer with brain metastasis transplanted in the mouse brain; experiment: Animal test with cells of lung cancer with brain metastasis, survival; type: in vivo; details: azathioprine 2 mg/kg oral every day after day 11, Temodal (TMZ) 65 mg/kg oral 5 days from day 17
Method: The cells of lung cancer with brain metastasis were obtained from Samsung Hospital (Seoul) and cultured. The cultured cells (2×10^5/5 μl) were transplanted in the mouse brain. 17 days later, Temodal administration (65 mg/kg, oral administration) began, which continued for 5 days. The compound of formula 1 of the present invention (azathioprine) was co-treated to the mouse by oral-administration at the dose of 2 mg/kg every day after 11 days from the transplantation of the cells of lung cancer with brain metastasis in the mouse brain. Then, the average survival period was investigated.

[2] = tested on: GBM #10 glioblastoma multiform patient originated cells; experiment: Neurosphere formation inhibition, GBM #10; type: cell-based, human; parameters: key: S: strong effect; I: intermediate effect; R: rare effect; details: GBM #10, type D (non-classified), Azathioprine 1 μM, duration 10 day
Method: (§1) Particularly, to investigate neurosphere formation, glioblastoma multiform cells were cultured for a certain time and the cells were distributed again in culture vessels, followed by additional culture. Then, the number of newly generated neurospheres was measured. First, the glioblastoma multiform patient originated cells were sub-cultured, which were distributed in a 96-well plate (20, 50, and 200 cells in 50 μl of culture medium/well). […] Then, the compound of formula 1 (azathioprine) and the compound of Comparative Example 1 (Temodal) were added to 50 μl of cell culture medium with the same concentrations as the above once a week, which were then cultured for 7˜23 days. When neurosphere was formed at least 50 μm in the control group not treated with the compound, the number of neurospheres in each well was counted to compare the neurosphere formation before and after the treatment of the compound of formula 1 (azathioprine) and the compound of Comparative Example 1 (Temodal).
(§2) The glioblastoma multiform cells used in this experiment were classified into 4 types, which are type A, type B, type C, and type D, according to the gene expression pattern. Methylation of MGMT (O6-me-G methyltransferase), the DNA repair protein, was confirmed in each cell line. […]

[3] = tested on: GBM #5 glioblastoma multiform patient originated cells; experiment: Neurosphere formation inhibition, GBM #5; type: cell-based, human; parameters: key: S: strong effect; I: intermediate effect; R: rare effect; details: GBM #5, type B (classical), Azathioprine 1 μM, duration 21 day
Method: as §1, §2

[4] = tested on: HepG2 Human hepatocarcinoma; experiment: Secondary cytotoxicity test, HepG2; type: cell-based
Method: (§3) Particularly, the cell growth inhibition effect was measured by WST-1 cell proliferation assay [http://www.roche-applied-science.com/PROD_INF/MANUALS/CELL_MAN/apoptosis—087—088.pdf]. The compound of formula 1 was loaded in a 384-well cell culture plate. Three types of glioblastoma multiform cell lines [proneural subtype (559T), mesenchymal subtype (592T), and classical subtype (626T)], normal human astrocytes (NHA), a lung cancer cell line (A549), and a glioblastoma multiform cell line (U87MG) were distributed in the plate at the density of 4.5×10^3 cells/well, and the medium was filled up to make 50 μl per well. At this time, the concentration of the solvent DMSO for the compound of formula 1 was no more than 0.2%. After culturing the cells for 72 hours, 5 mg/ml of WST-1 reagent was added by 5 μl per well, followed by reaction for 3˜4 hours. Then OD450 was measured to investigate the effect of the compound of formula 1 on cell proliferation.
(§4) To investigate the cell growth inhibition effect of the compound of formula 1 of the present invention (azathioprine) in many different cell lines, secondary cytotoxicity test was performed with the cell lines listed in Table 5 by the same manner as described in Example 1.

[5] = tested on: GBM #1 glioblastoma multiform patient originated cells; experiment: Neurosphere formation inhibition, GBM #1; type: cell-based, human; parameters: key to inhibition of neurosphere formation: S: strong effect; I: intermediate effect; R: rare effect
Method: Particularly, to investigate neurosphere formation, glioblastoma multiform cells were cultured for a certain time and the cells were distributed again in culture vessels, followed by additional culture. Then, the number of newly generated neurospheres was measured. First, the glioblastoma multiform patient originated cells were sub-cultured, which were distributed in a 96-well plate (20, 50, and 200 cells in 50 μl of culture medium/well). 2, 6, and 20 μM of the compound of formula 1 (azathioprine) and the compound of Comparative Example 1 (Temodal) were treated thereto by 50 μl per well to make the final concentrations of 1, 3, and 10 μM. Then, the compound of formula 1 (azathioprine) and the compound of Comparative Example 1 (Temodal) were added to 50 μl of cell culture medium with the same concentrations as the above once a week, which were then cultured for 7˜23 days. When neurosphere was formed at least 50 μm in the control group not treated with the compound, the number of neurospheres in each well was counted to compare the neurosphere formation before and after the treatment of the compound of formula 1 (azathioprine) and the compound of Comparative Example 1 (Temodal).
The glioblastoma multiform cells used in this experiment were classified into 4 types, which are type A, type B, type C, and type D, according to the gene expression pattern. Methylation of MGMT (O6-me-G methyltransferase), the DNA repair protein, was confirmed in each cell line. At that time, type A [GBM #1, #2, #3] was proneural subtype, type B [GBM #4, #5, #6, #7] was classical subtype, type C [GBM #8] was mesenchymal subtype, and type D [GBM #9, #10] was non-classified glioblastoma multiform.

[6] = tested on: HaCat Human keratinocyte; experiment: Secondary cytotoxicity test, HaCat; type: cell-based
Method: as §3, §4

[7] = tested on: glioblastoma multiform cells transplanted in the brain of a mouse; experiment: Glioblastoma multiform orthotopic animal model, survival; type: in vivo
Method: Following experiment was performed to investigate the radiosensitizing effect and chemosensitizing effect of the compound of formula 1 (azathioprine) in the glioblastoma multiform orthotopic animal model.
Particularly, to investigate the resistance against Temodal or radiotherapy in glioblastoma multiform, glioblastoma multiform cells were cultured. The cultured cells (2×10^5/5 μl) were transplanted in the brain of a mouse. 17 days later, the administration of Temodal (65 mg/kg, oral-administration) or radiotherapy (2 Gy) began, which continued for 5 days. The average survival period was investigated. […] For the comparison, the survival period of the group treated with “Avastin”, the well-known anticancer agent, is also presented.
Glioblastoma multiform, glioblastoma multiform cells were cultured. The cultured cells (2×10^5/5 μl) were transplanted in the brain of a mouse. 17 days later, the administration of Temodal (65 mg/kg, oral-administration) or radiotherapy (2 Gy) began, which continued for 5 days. Unlike the above experiment, the compound of formula 1 of the present invention (azathioprine) was co-treated to the mouse by oral-administration at the dose of 20 mg/kg every day after 11 days from the glioblastoma multiform transplantation in the mouse brain. Then, the average survival period was investigated.

[8] = tested on: GBM #9 glioblastoma multiform patient originated cells; experiment: Neurosphere formation inhibition, GBM #9; type: cell-based, human; parameters: key: S: strong effect; I: intermediate effect; R: rare effect; details: GBM #9, type D (non-classified), Azathioprine 1 μM, duration 21 day
Method: as §1, §2

With `Cn1cnc([N+](=O)[O-])c1Sc1ncnc2nc[nH]c12` [Azathioprine, 6-(1-methyl-4-nitro-1H-imidazol-5-ylthio)-7H-purine] the “Average Survival Period” value [1] was 63 days, the “Survival Period Extension Rate (%)” value [1] was 59-70% and the “inhibition of neurosphere formation” value [2] was “S”. The “inhibition of neurosphere formation” value [3] was “S”, the IC50 [4] was over 10 µM and the “inhibition of neurosphere formation” value ([5]; GBM #1, type A (proneural), Azathioprine 1 μM, duration 7 day) was “R”. For the same compound, the neurosphere formation ([5]; GBM#1, azathioprine raised to 10 μM) was “significantly inhibited”, the IC50 [6] was 6.3 µM and the “Average Survival Period” value ([7]; radiotherapy (2 Gy) 5 days from day 17 + azathioprine 20 mg/kg oral every day after day 11, control 28 days) was 41 days. For the same compound, the “Survival Period Extension Rate (%)” value ([7]; radiotherapy (2 Gy) 5 days from day 17 + azathioprine 20 mg/kg oral every day after day 11, vs. control) was 44% and the “inhibition of neurosphere formation” value [8] was “S”.
